Among the test systems are SNB-19; NCI-H23; IGROV-1; ACHN; HCT-116; MOLT-4; NCI-H226; K562; RPMI-8226; NCI/ADR-RES; HL-60; HOP-62; SF-539; UO-31; SK-MEL-5; OVCAR-4; OVCAR-8; KM12; CCRF-CEM; NCI-H522.
Common to all, as to experiment: NCI-60 cell line screen, 48 h

SMILES strings stand for the structures.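 Assay format: 96-well plates, 48-hour exposure. GI50 marks 50% less growth.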 Active and inactive are the calls of the source. Cut-off read from the data, not from the text of the source: active = GI50 up to about 1.1 µM and inactive = higher.

`CC1(C)C(C#N)=[N+]([O-])C(C)(C)N1O`: the GI50 in the assay with SNB-19 is > 100 µM (inactive); in the assay on NCI-H23, > 100 µM (inactive); in the assay with IGROV-1, > 100 µM (inactive); in the assay with ACHN, > 100 µM (inactive); in the assay on HCT-116, > 100 µM (inactive); in the assay on MOLT-4, 35.5 µM (inactive). Besides, the GI50 in the assay on NCI-H226 was > 100 µM (inactive); with K562 it was > 100 µM (inactive); in the assay on RPMI-8226 it was > 100 µM (inactive); in the assay on NCI/ADR-RES, > 100 µM (inactive); in the assay with HL-60, 26.7 µM (inactive); with HOP-62, > 100 µM (inactive). Also, the GI50 in the assay on SF-539 was > 100 µM (inactive); with UO-31 it was > 100 µM (inactive); in the assay with SK-MEL-5, 34.6 µM (inactive); with OVCAR-4 it was > 100 µM (inactive); with OVCAR-8 it was > 100 µM (inactive); in the assay with KM12, > 100 µM (inactive). In addition, in the assay with CCRF-CEM, the GI50 was 33.5 µM (inactive).

For `COc1ccc(C2=C(Cl)C(=O)N(c3ccc(OC)cc3OC)C(=O)C2(Cl)Cl)cc1`, the GI50 was 56.6 µM (inactive) with SNB-19; 15.4 µM (inactive) in the assay on NCI-H23; 18.5 µM (inactive) in the assay with IGROV-1; 15.7 µM (inactive) in the assay on ACHN; 15.5 µM (inactive) in the assay on HCT-116; 5.07 µM (inactive) in the assay on MOLT-4. The GI50 in the assay with NCI-H226 was 11.9 µM (inactive); with K562, 19.8 µM (inactive); with NCI/ADR-RES, 14.5 µM (inactive); with HL-60 it was 25.2 µM (inactive); in the assay on HOP-62 it was 18.5 µM (inactive); in the assay with SF-539 it was 10.4 µM (inactive). For the same compound, the GI50 with UO-31 was 14.8 µM (inactive); with SK-MEL-5, 14.9 µM (inactive); in the assay with NCI-H522, 14.3 µM (inactive); with OVCAR-4, 14.5 µM (inactive); in the assay with OVCAR-8 it was 19.5 µM (inactive); with KM12 it was 17.1 µM (inactive).

Consider `C[C@H](N)C(=O)Nc1ccc(-c2nc3ccccc3s2)cc1Cl`, for which the GI50 was 16.3 µM (inactive) in the assay with SNB-19; 16.5 µM (inactive) in the assay on NCI-H23; 0.165 µM (active) in the assay on IGROV-1; 15.4 µM (inactive) in the assay with ACHN; 11.6 µM (inactive) in the assay with HCT-116; 17.7 µM (inactive) in the assay with MOLT-4. Further, the GI50 in the assay with NCI-H226 was 0.0745 µM (active); with K562, 17.1 µM (inactive); in the assay on NCI/ADR-RES it was 30.8 µM (inactive); in the assay on HOP-62, 12.3 µM (inactive); in the assay with UO-31 it was 10.7 µM (inactive); in the assay with SK-MEL-5, 16.1 µM (inactive). Also, the GI50 with NCI-H522 was 20.5 µM (inactive); with OVCAR-8, 26 µM (inactive); with KM12 it was 15 µM (inactive); in the assay on CCRF-CEM it was 12 µM (inactive).

`COc1ccc(N[C@H](C[S+]([O-])c2ccc(C)cc2)C(F)(F)F)cc1` (stereo partly specified): the GI50 in the assay with SNB-19, in the assay with NCI-H23, with IGROV-1, with ACHN, in the assay on HCT-116 and in the assay on MOLT-4 was > 100 µM (inactive) throughout. For the same compound, the GI50 in the assay on NCI-H226, in the assay on K562, with NCI/ADR-RES, in the assay with HL-60, in the assay on SF-539 and in the assay with UO-31 was > 100 µM (inactive) each time. Moreover, the GI50 in the assay with SK-MEL-5, in the assay with NCI-H522, in the assay with OVCAR-4, with OVCAR-8, in the assay on KM12 and in the assay on CCRF-CEM was > 100 µM (inactive) throughout.
